# Experiments:
# calf liver = calf liver ex vivo, 8 cc glacial acetic acid injected by hand over 2 minutes
# From the text: An MRI-compatible, 10 cm, 22-gauge needle was inserted into a calf liver that was placed in a transmit/receive birdcage coil. […] The offset frequency of the chemical saturation pulse was set at 170 Hz. […] A complete 3D data set was acquired every 15 seconds. Scanning parameters were: 20 degree flip angle, TE=4.2 msec, TR=34 msec, matrix=256×128×4, 1 signal average, and 32 kHz receiver bandwidth. A total of 15 temporal phases was acquired, each with approximately 15 second time resolution.
# The time after injection appears in seconds in the lower left corner of each frame.
# lung tumor = tested on: lung tumor
# From the text: (§1) An MR-compatible needle is advanced into the lesions to introduce the ablation agent.
# renal tumor = tested on: renal tumor
# From the text: as §1
# prostate tumor = tested on: prostate tumor
# From the text: as §1
# breast tumor = tested on: breast tumor
# From the text: as §1
# [1] = tested on: unresectable hepatocellular carcinoma
# Procedure: After obtaining standard T1 and T2-weighted imaging, an MR-compatible 10 cm long, 22-gauge needle was advanced into the lesions. Baseline imaging was performed using a water-suppressed two-dimensional spoiled gradient-echo pulse sequence. […] The scanning parameters were: 30 degree flip angle, TE=4.2 msec, TR=34 msec, 34-38 cm field-of-view, ±16 kHz receiver bandwidth, 256×128 matrix, and 7 mm slice thickness.
# [2] = tested on: hepatocellular carcinoma less than about 3 cm; conditions: randomized, controlled trial, patients with hepatocellular carcinoma less than about 3 cm; cited from earlier work
# hepatic tumor = experiment: Paper example: CS-MRI guided chemical ablation of a hepatic tumor; conditions: for outcome of chemical ablation therapy: hepatic tumor, slow injection under CS-MRI
# Procedure: as §1
# (§2) A patient presents for ethanol ablation therapy of a hepatic tumor. The patient is prepared by placement on the MRI scanner platform and the spectrometer is calibrated for ^13C-labeled ethanol using standard T1 and T2-weighted imaging. An MR-compatible needle is advanced into the lesions to introduce the ablation agent. Dynamic two-dimensional, chemical shift MRI is performed during the slow injection of ^13C-labeled ethanol. The distribution of ^13C-labeled ethanol is then directly visualized using chemical shift MRI.
# as §2, with “hot saline” for “ethanol”, “^23Na-labeled saline” for “^13C-labeled ethanol”, “^23Na-labeled saline.” for “^13C-labeled ethanol.”
# multifocal hepatoma = conditions: Patient 3, post-injection, signal low in intensity
compound,measurement,setting,value
CC(=O)O [acetic acid],distribution of the agent at the injection site on CS-MRI,calf liver,focal accumulation of acetic acid adjacent to the needle tip
same,outcome of chemical ablation therapy,lung tumor,successful in destroying the tumor
same,outcome of chemical ablation therapy,renal tumor,successful in destroying the tumor
same,outcome of chemical ablation therapy,prostate tumor,successful in destroying the tumor
same,outcome of chemical ablation therapy,breast tumor,successful in destroying the tumor
same,size of the lesion versus distribution of the agent,[1]; Patient 2,closely matches
same,extra-hepatic extravasation of the agent,[1]; in vivo,No extra-hepatic extravasation of the agent is observed
same,effectiveness of ablation compared with ethanol ablation,[2],more effective than ethanol ablation
^13C-labeled acetic acid,outcome of chemical ablation therapy,hepatic tumor,successful in destroying the tumor
^13C-labeled ethanol,outcome of chemical ablation therapy,hepatic tumor,successful in destroying the tumor
same,damage to surrounding tissues,hepatic tumor; in vivo,without damage to surrounding tissues
CCO [ethanol],distribution of the agent on CS-MRI,multifocal hepatoma,focal signal accumulation due to ethanol injection is observed
